Test results taken from patent US8188148B2, “Substituted 1,3-diphenylpropane derivatives, preparations and uses thereof” (Genfit, priority 2006, dated 2012).

Legend:
db/db mouse = test: In vivo evaluation on db/db mouse: body weight, glycemia, insulinemia, plasma lipids; conditions: 50 mpk per os, 28 days
Method: The effect of the compounds according to the invention is evaluated in vivo on the db/db mouse by measuring the body weight evolution, the glucose levels, the insulin levels, the plasma total cholesterol and triglyceride levels, and by analyzing the distribution of cholesterol in different plasma lipoprotein fractions, after 28 days of a per os treatment with compounds according to the invention.
Female db/db mice were kept on a 12 hour/12 hour light/dark cycle at a constant temperature of 20±3° C. After a one week acclimatization period, the mice were weighed and divided into groups of 8 animals selected so as to render uniform the distribution of their body weights and their plasma lipid rates, determined before the experiment. The tested compounds were suspended in carboxymethylcellulose (Sigma C4888) and administered intra-gastric tube feeding once a day for 28 days at the chosen dose. The animals had free access to food and water (standard diet). Taking of food and weight gain are recorded throughout the experiment. At the end of the experiment, the animals were anesthetized after a 4 hour fast, a blood sample was taken using (EDTA) anticoagulant, then the mice were weighed and euthanized. The plasma was separated by centrifugation at 3000 rotations/minute for 20 minutes. The samples were kept at +4° C. The hepatic tissue and skeletal muscle tissue samples were taken and frozen immediately in liquid nitrogen then conserved at −80° C. for later analysis.
Murine plasma glucose is measured out according to an enzyme-colorimetric method using a Glucose RTU kit (Biomérieux). Glucose is transformed into gluconic acid under the action of glucose oxidase; the reaction releases hydrogen peroxide. Hydrogen peroxide is measured according to the Trinder reaction which, under the action of a peroxidase and in the presence of phenol and amino-4-antipyrine, produces water and a colored product, quinoneimine. The color intensity, due to the quinoneimine, is proportional to the amount of glucose present in the sample.
Murine insulin is measured using ELISA method (using the INSKR020 kit from provider Crystal chem.). A microplate is coated with a mouse anti-insulin antibody. Then, the serum to be assayed for insulin is placed onto the plate. A guinea pig anti-insulin antibody is used to recognize the complex formed by the mouse insulin and the anti-insulin monoclonal antibody. Finally an anti-guinea pig antibody labeled with peroxidase is added and bind to the guinea pig anti-insulin antibody. The colorimetric reaction is performed by adding an OPD (ortho phenyl diamine) enzyme substrate. The intensity of the color is proportional to the amount of insulin present in the sample.
Plasma lipid concentrations (total cholesterol and triglycerides) are measured by enzymatic assays (bioMérieux-Lyon-France) according to the provider's recommendations.
The different lipid fractions (VLDL, LDL, HDL) in the plasma were separated using gel-filtration chromatography. Cholesterol concentrations were then measured for each fraction by enzymatic assays (bioMérieux-Lyon-France) according to the provider's recommendations.

[1] = test system: PPARs target genes (PDK4, UCP2); test: Hepatic and skeletal muscle gene expression by quantitative RT-PCR in db/db mouse; assay type: in vivo; conditions: 50 mpk, 28 days
Method: The effectiveness of the compounds according to the invention is also evaluated by measuring, in the hepatic and muscular (skeletal) tissues, the expression of genes involved in lipid and/or glucid metabolism and in energy dissipation. Each level of gene expression is normalized regarding the expression level of the reference gene 36B4 in the hepatic tissue, or regarding the expression level of the reference gene 18S in the gastrocnemius skeletal muscle. The induction factor, i.e. the ratio between the relative signal (induced by the compound according to the invention) and the average of the relative values obtained with the control group, is then calculated. The higher the induction factor is, the more the greater the compound promotes gene expression. The final result is represented as the average of the induction values obtained with each experimental group. • FIG. 4-8: Expression of PDK4 in the hepatic tissue of the db/db mouse, after 28 days of treatment with compound 1 and compound 3, administered at 50 mpk • FIG. 4-9: Expression of UCP2 (uncoupling protein 2) in the skeletal muscle tissue of the db/db mouse, after 28 days of treatment with compound 1 and compound 3, administered at 50 mpk
Total RNA was extracted from liver fragments by using a NucleoSpin® 96 RNA kit (Macherey Nagel, Hoerdt, France) according to the manufacturer's instructions.
Total RNA was extracted from gastrocnemius skeletal muscle fragments by using a RNeasy® Fibrous Tissue kit (Qiagen) according to the manufacturer's instructions.
1 μg of total RNA (quantified by spectrophotometry) was then reverse-transcripted into complementary DNA by means of a 1 hour reaction at 37° C. in a total volume of 20 μl containing a 1× buffer (Sigma), 1.5 mM of DTT, 0.18 mM of dNTPs (Promega), 200 ng of pdN6 (Amersham), 30 U of RNase inhibitor (Sigma), and 1 μl of MMLV-RT (Sigma).
The PCR quantitative experiments were carried out using the MyiQ Single-Color Real-Time PCR Detection System (Biorad, Marnes-la-Coquette, France) and were performed using the iQ SYBR Green Supermix kit according to the provider's recommendations, in 96-well plates in 5 μl of a diluted reverse-transcription solution at a hybridization temperature of 55° C. The specific primer pairs of the genes being studied were used:
The amount of fluorescence emitted is directly proportional to the amount of complementary DNA present at the beginning of the reaction and amplified during the PCR. For each target studied, a range of solutions is performed with successive dilutions of mixtures of a few microliters of different reverse-transcription solutions. The relative levels of expression of each target are thus determined by using efficiency curves obtained with the points relative to the range of PCR solutions. […]

THP-1 human monocytes = test: Secretion of MCP1 by THP-1 monocytes stimulated with PMA; assay type: cell-based; conditions: THP-1 cells, 1 μM compound, 5 ng/ml PMA, 24 hours, vs DMSO
Method: The anti-inflammatory effects of the compound according to the invention is evaluated by measuring the secretion of MCP1 (Monocyte chemotactic protein-1) by THP1 monocytes treated for 24 hours with the compounds according to the invention and stimulated simultaneously with PMA (Phorbol 12-myristate 13-acetate, which promotes an inflammatory response in cells and their differentiation into macrophages).
The anti-inflammatory effects of the compounds according to the invention were evaluated by measuring the secretion of MCP1 (Monocyte chemotactic protein-1) by monocytes treated for 24 hours with compounds according to the invention and stimulated simultaneously with PMA (Phorbol 12-myristate 13-acetate, which promotes an inflammatory response in cells and their differentiation into macrophages). […]
The treatment medium is recovered and the MCP1 concentration is measured using the ELISA kit <<Human MCP-1 ELISA Set>> (BD OptEIA; 555179) in accordance with the manufacturer's recommendation.
MCP1 is laid on a plate and is recognized by an anti-MCP1 specific antibody. […] The coloration resulting from enzymatic activity is proportional to the quantity of fixed MCP1 and can be measured by a spectrophotometry method. A range is performed from a point representative of a known concentration and from which the MCP1 concentration of each sample is calculated. […]

SMILES: Cc1cc(CCC(=O)c2ccc(Br)cc2)cc(C)c1OC(C)(C)C(=O)O [Compound 3, 2-[2,6-dimethyl-4-[3-[4-bromophenyl]-3-oxo-propyl]phenoxy]-2-methylpropanoic acid]
- HDL-cholesterol fraction (distribution of cholesterol in plasma lipoprotein fractions) (db/db mouse): significant increase
- plasma free fatty acids (db/db mouse; vs control): very significantly decreased
- plasma triglycerides (db/db mouse; vs control): very significantly decreased
- total plasma cholesterol (db/db mouse; vs control): significantly increased
- expression of the gene coding for UCP2 in the skeletal muscle ([1]; gastrocnemius skeletal muscle): reduction
- hepatic expression of the gene coding for PDK4 ([1]; hepatic tissue): significant increase
- MCP1 secreted by monocytes (THP-1 human monocytes): significant reduction
